Assay results as given in patent US9513294B2, “Megastokes amino-triazolyl-BODIPY compounds and applications to live neuron staining and human serum albumin FA1 drug site probing” (National University of Singapore, priority 2012, dated 2016).

Tests used:
[1] = Quantum yield measurements versus Acridine Yellow in EtOH; type: physicochemical; conditions: for φ (quantum yield): excitation 460 nm; for φ (%): quantum yield
Summary of the method: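 Fluorescence quantum yield is relative to Acridine Yellow in EtOH (Φ 0.47), with excitation at 460 nm. Integrated emission at 510–700 nm was corrected for absorbance at the excitation wavelength and for solvent refractive index.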

[2] = Absorbance and fluorescence emission spectra (SpectraMax M2); type: physicochemical; conditions: for λmax Abs. (nm) / λmax Em. (nm): MKAC compound library; for λmax Abs. (nm) / λmax Absorp. (nm): absorbance maximum; for λmax Em. (nm) / λmax Emission (nm): fluorescence emission maximum; for λmax Absorp. (nm) / λmax Emission (nm): MKCA compound library
Summary of the method: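 Absorbance and emission maxima measured on a SpectraMax M2 spectrophotometer, which also gave quantum yield data; analysis in GraphPrism.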

CN(Cc1ccccc1)C1=[N+]2C(=C(c3ccc(N)cc3)c3ccc(-n4cc(CO)nn4)n3[B-]2(F)F)C=C1 [MK195-70]
φ (quantum yield) ([1]; MK library, Table 5): 0.27%
λmax Absorp. ([2]; MK library, Table 5): 475 nm
λmax Emission ([2]; MK library, Table 5): 592 nm

CC(=O)Nc1ccc(C2=C3C=CC(N4CCCC4)=[N+]3[B-](F)(F)n3c2ccc3-n2cc(CC(C)C)nn2)cc1 [MKAC215-43]
φ (%) ([1]; MKAC compound library): 1.83%
λmax Abs. (nm) [2]: 461 nm
λmax Em. (nm) [2]: 565 nm

CC(C)Cc1cn(-c2ccc3n2[B-](F)(F)[N+]2=C(N4CCCC4)C=CC2=C3c2ccc(NC(=O)CCl)cc2)nn1 [MKCA215-43]
φ (%) ([1]; MKCA compound library): 4.04%
λmax Absorp. (nm) [2]: 461 nm
λmax Emission (nm) [2]: 570 nm

Nc1ccc(C2=C3C=CC(NCc4cc(F)cc(F)c4)=[N+]3[B-](F)(F)n3c2ccc3-n2cc(C3CC3)nn2)cc1 [MK412-4]
φ (quantum yield) ([1]; MK library, Table 5): 0.67%
λmax Absorp. ([2]; MK library, Table 5): 475 nm
λmax Emission ([2]; MK library, Table 5): 562 nm

O=C(CCl)Nc1ccc(C2=C3C=CC(NCc4cc(F)cc(F)c4)=[N+]3[B-](F)(F)n3c2ccc3-n2cc(C3CC3)nn2)cc1 [MKCA412-4]
φ (%) ([1]; MKCA compound library): 36.25%
λmax Absorp. (nm) [2]: 467 nm
λmax Emission (nm) [2]: 563 nm

CC(=O)Nc1ccc(C2=C3C=CC(N4CCc5ccccc5C4)=[N+]3[B-](F)(F)n3c2ccc3-n2cc(CC(C)C)nn2)cc1 [MKAC66-43]
φ (%) ([1]; MKAC compound library): 1.92%
λmax Abs. (nm) [2]: 469 nm
λmax Em. (nm) [2]: 581 nm

O=C(CCl)Nc1ccc(C2=C3C=CC(N4CCCCC4)=[N+]3[B-](F)(F)n3c2ccc3-n2cc(-c3ccc(F)c(F)c3)nn2)cc1 [BDCCA-16]
φ (quantum yield) ([1]; BDCCA library, Table 4): 0.7%
λmax Absorp. ([2]; BDCCA library, Table 4): 462 nm
λmax Emission ([2]; BDCCA library, Table 4): 581 nm

O=C(CCl)Nc1ccc(C2=C3C=CC(N4CCc5ccccc5C4)=[N+]3[B-](F)(F)n3c2ccc3-n2cc(CO)nn2)cc1 [MKCA66-70]
φ (%) ([1]; MKCA compound library): 2.61%
λmax Absorp. (nm) [2]: 468 nm
λmax Emission (nm) [2]: 581 nm

CN(C)c1ccc(-c2cn(-c3ccc4n3[B-](F)(F)[N+]3=C(N5CCCCC5)C=CC3=C4c3ccc(N)cc3)nn2)cc1 [BDC-13]
φ (quantum yield) ([1]; BDC library, Table 2): 0.03%
λmax Absorp. ([2]; BDC library, Table 2): 475 nm
λmax Emission ([2]; BDC library, Table 2): 616 nm

CCCC(C)c1cn(-c2ccc3n2[B-](F)(F)[N+]2=C(N4CCCC4)C=CC2=C3c2ccc(NC(=O)CCl)cc2)nn1 (stereo not drawn) [MKCA215-3]
φ (%) ([1]; MKCA compound library): 3.99%
λmax Absorp. (nm) [2]: 463 nm
λmax Emission (nm) [2]: 569 nm

CC(=O)Nc1ccc(C2=C3C=CC(N4CCCCC4)=[N+]3[B-](F)(F)n3c2ccc3-n2cc(C3CCCCC3)nn2)cc1 [BDCAC-6]
φ (quantum yield) ([1]; BDCAC library, Table 3): 2.4%
λmax Absorp. ([2]; BDCAC library, Table 3): 467 nm
λmax Emission ([2]; BDCAC library, Table 3): 560 nm

CN(Cc1ccccc1)Cc1cn(-c2ccc3n2[B-](F)(F)[N+]2=C(N4CCCCC4)C=CC2=C3c2ccc(N)cc2)nn1 [BDC-18]
φ (quantum yield) ([1]; BDC library, Table 2): 0.18%
λmax Absorp. ([2]; BDC library, Table 2): 471 nm
λmax Emission ([2]; BDC library, Table 2): 580 nm

Cc1ccccc1CNC1=[N+]2C(=C(c3ccc(NC(=O)CCl)cc3)c3ccc(-n4cc(CC(C)C)nn4)n3[B-]2(F)F)C=C1 [MKCA101-43]
φ (%) ([1]; MKCA compound library): 29.92%
λmax Absorp. (nm) [2]: 466 nm
λmax Emission (nm) [2]: 562 nm

CC(=O)Nc1ccc(C2=C3C=CC(N4CCCCC4)=[N+]3[B-](F)(F)n3c2ccc3-n2cc(CN(C)Cc3ccccc3)nn2)cc1 [BDCAC-18]
φ (quantum yield) ([1]; BDCAC library, Table 3): 0.8%
λmax Absorp. ([2]; BDCAC library, Table 3): 465 nm
λmax Emission ([2]; BDCAC library, Table 3): 588 nm

Nc1ccc(C2=C3C=CC(N4CCCCC4)=[N+]3[B-](F)(F)n3c2ccc3-n2cc(-c3ccc(F)c(F)c3)nn2)cc1 [BDC-16]
φ (quantum yield) ([1]; BDC library, Table 2): 0.18%
λmax Absorp. ([2]; BDC library, Table 2): 471 nm
λmax Emission ([2]; BDC library, Table 2): 585 nm

CCOc1ccccc1CNC1=[N+]2C(=C(c3ccc(N)cc3)c3ccc(-n4cc(CN(C)Cc5ccccc5)nn4)n3[B-]2(F)F)C=C1 [MK103-18]
φ (quantum yield) ([1]; MK library, Table 5): 1.19%
λmax Absorp. ([2]; MK library, Table 5): 473 nm
λmax Emission ([2]; MK library, Table 5): 565 nm

CCCCCC(O)c1cn(-c2ccc3n2[B-](F)(F)[N+]2=C(NCc4cc(F)cc(F)c4)C=CC2=C3c2ccc(N)cc2)nn1 (stereo not drawn) [MK412-69]
φ (quantum yield) ([1]; MK library, Table 5): 1.98%
λmax Absorp. ([2]; MK library, Table 5): 476 nm
λmax Emission ([2]; MK library, Table 5): 563 nm

CCCCCC(O)c1cn(-c2ccc3n2[B-](F)(F)[N+]2=C(NCc4cc(OC)ccc4OC)C=CC2=C3c2ccc(NC(C)=O)cc2)nn1 (racemic) [MKAC181-69]
φ (%) ([1]; MKAC compound library): 16.50%
λmax Abs. (nm) [2]: 465 nm
λmax Em. (nm) [2]: 561 nm

COc1ccc(OC)c(CNC2=[N+]3C(=C(c4ccc(NC(=O)CCl)cc4)c4ccc(-n5cc(C6CC6)nn5)n4[B-]3(F)F)C=C2)c1 [MKCA181-4]
φ (%) ([1]; MKCA compound library): 19.35%
λmax Absorp. (nm) [2]: 464 nm
λmax Emission (nm) [2]: 566 nm

O=C(CCl)Nc1ccc(C2=C3C=CC(N4CCCCC4)=[N+]3[B-](F)(F)n3c2ccc3-n2cc(-c3ccccc3)nn2)cc1 [BDCCA-9]
φ (quantum yield) ([1]; BDCCA library, Table 4): 1.1%
λmax Absorp. ([2]; BDCCA library, Table 4): 464 nm
λmax Emission ([2]; BDCCA library, Table 4): 577 nm

COc1cccc(-c2cn(-c3ccc4n3[B-](F)(F)[N+]3=C(N5CCCCC5)C=CC3=C4c3ccc(NC(C)=O)cc3)nn2)c1 [BDCAC-27]
φ (quantum yield) ([1]; BDCAC library, Table 3): 2.1%
λmax Absorp. ([2]; BDCAC library, Table 3): 464 nm
λmax Emission ([2]; BDCAC library, Table 3): 555 nm

CCOc1ccccc1CNC1=[N+]2C(=C(c3ccc(NC(=O)CCl)cc3)c3ccc(-n4cc(CO)nn4)n3[B-]2(F)F)C=C1 [MKCA103-70]
φ (%) ([1]; MKCA compound library): 20.22%
λmax Absorp. (nm) [2]: 463 nm
λmax Emission (nm) [2]: 563 nm

CCCc1cn(-c2ccc3n2[B-](F)(F)[N+]2=C(NCc4cc(F)cc(F)c4)C=CC2=C3c2ccc(NC(=O)CCl)cc2)nn1 [MKCA412-48]
φ (%) ([1]; MKCA compound library): 36.09%
λmax Absorp. (nm) [2]: 466 nm
λmax Emission (nm) [2]: 561 nm

CCCc1cn(-c2ccc3n2[B-](F)(F)[N+]2=C(NCc4cc(F)cc(F)c4)C=CC2=C3c2ccc(N)cc2)nn1 [MK412-48]
φ (quantum yield) ([1]; MK library, Table 5): 1.55%
λmax Absorp. ([2]; MK library, Table 5): 474 nm
λmax Emission ([2]; MK library, Table 5): 563 nm

CCCCc1ccc(-c2cn(-c3ccc4n3[B-](F)(F)[N+]3=C(N5CCCCC5)C=CC3=C4c3ccc(NC(C)=O)cc3)nn2)cc1 [BDCAC-12]
φ (quantum yield) ([1]; BDCAC library, Table 3): 1.6%
λmax Absorp. ([2]; BDCAC library, Table 3): 464 nm
λmax Emission ([2]; BDCAC library, Table 3): 558 nm

CCCCCC(O)c1cn(-c2ccc3n2[B-](F)(F)[N+]2=C(N4CCc5ccccc5C4)C=CC2=C3c2ccc(N)cc2)nn1 (stereo not drawn) [MK66-69]
φ (quantum yield) ([1]; MK library, Table 5): 0.14%
λmax Absorp. ([2]; MK library, Table 5): 480 nm
λmax Emission ([2]; MK library, Table 5): 583 nm

O=C(CCl)Nc1ccc(C2=C3C=CC(NCc4cc(F)cc(F)c4)=[N+]3[B-](F)(F)n3c2ccc3-n2cc(CCc3ccccc3)nn2)cc1 [MKCA412-19]
φ (%) ([1]; MKCA compound library): 42.58%
λmax Absorp. (nm) [2]: 466 nm
λmax Emission (nm) [2]: 563 nm

CCOc1ccccc1CNC1=[N+]2C(=C(c3ccc(NC(C)=O)cc3)c3ccc(-n4cc(CN(C)Cc5ccccc5)nn4)n3[B-]2(F)F)C=C1 [MKAC103-18]
φ (%) ([1]; MKAC compound library): 18.63%
λmax Abs. (nm) [2]: 465 nm
λmax Em. (nm) [2]: 560 nm

CC(=O)Nc1ccc(C2=C3C=CC(NCc4cc(F)cc(F)c4)=[N+]3[B-](F)(F)n3c2ccc3-n2cc(CC3CCCCC3)nn2)cc1 [MKAC412-8]
φ (%) ([1]; MKAC compound library): 16.81%
λmax Abs. (nm) [2]: 467 nm
λmax Em. (nm) [2]: 562 nm

CC(=O)Nc1ccc(C2=C3C=CC(N4CCCCC4)=[N+]3[B-](F)(F)n3c2ccc3-n2cc(CC3CCCC3)nn2)cc1 [BDCAC-7]
φ (quantum yield) ([1]; BDCAC library, Table 3): 1.3%
λmax Absorp. ([2]; BDCAC library, Table 3): 467 nm
λmax Emission ([2]; BDCAC library, Table 3): 585 nm

CN(C)c1ccc(-c2cn(-c3ccc4n3[B-](F)(F)[N+]3=C(N5CCCCC5)C=CC3=C4c3ccc(NC(=O)CCl)cc3)nn2)cc1 [BDCCA-13]
φ (quantum yield) ([1]; BDCCA library, Table 4): 0.1%
λmax Absorp. ([2]; BDCCA library, Table 4): 467 nm
λmax Emission ([2]; BDCCA library, Table 4): 627 nm

CCOc1ccccc1CNC1=[N+]2C(=C(c3ccc(NC(C)=O)cc3)c3ccc(-n4cc(CC(C)C)nn4)n3[B-]2(F)F)C=C1 [MKAC103-43]
φ (%) ([1]; MKAC compound library): 22.79%
λmax Abs. (nm) [2]: 465 nm
λmax Em. (nm) [2]: 560 nm

CC(=O)Nc1ccc(C2=C3C=CC(N4CCCCC4)=[N+]3[B-](F)(F)n3c2ccc3-n2cc(-c3ccc(OC(F)(F)F)cc3)nn2)cc1 [BDCAC-15]
φ (quantum yield) ([1]; BDCAC library, Table 3): 2.7%
λmax Absorp. ([2]; BDCAC library, Table 3): 463 nm
λmax Emission ([2]; BDCAC library, Table 3): 537 nm

Nc1ccc(C2=C3C=CC(N4CCCCC4)=[N+]3[B-](F)(F)n3c2ccc3-n2cc(C3CCCCC3)nn2)cc1 [BDC-6]
φ (quantum yield) ([1]; BDC library, Table 2): 0.24%
λmax Absorp. ([2]; BDC library, Table 2): 473 nm
λmax Emission ([2]; BDC library, Table 2): 582 nm
